Results reported in PubChem BioAssay (NCI).
Values joined by “and” are separate entries in the source; they are usually repeats but may differ in a detail not shown here. Identical values can stand only once.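 Test compounds were applied to cells in 96-well plates for 48 hours at 5 doses. GI50 = concentration required for 50% inhibition of growth. TGI: total growth inhibition.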

Key:
Assay in all cases: NCI anticancer screen, dose series, 48 h
[1] = tested on: A549 NSCLC
[2] = tested on: EKVX NSCLC
[3] = tested on: HCT-116 colon
[4] = tested on: HOP-92 NSCLC
[5] = tested on: LOX IMVI melanoma
[6] = tested on: M14 melanoma
[7] = tested on: MDA-MB-435
[8] = tested on: MDA-N
[9] = tested on: OVCAR-4 ovarian
[10] = tested on: SK-MEL-28 melanoma
[11] = tested on: NCI-H522 lung
[12] = tested on: UACC-62 melanoma

SMILES	TGI [1]	TGI [2]	TGI [3]	TGI [4]	TGI [5]	TGI [6]	TGI [7]	TGI [8]	TGI [9]	TGI [10]	TGI [11]	TGI [12]	GI50 [5]	GI50 [4]	GI50 [6]	GI50 [7]	GI50 [8]	GI50 [10]	GI50 [12]
Cc1cc(C)cc(Nc2cc(=O)[nH]c(=O)[nH]2)c1	> 100 µM	> 100 µM	> 100 µM	> 100 µM	> 100 µM	> 100 µM	> 100 µM	> 100 µM	> 100 µM	> 100 µM									
Cc1ccn2c(=O)cc(-c3ccccc3)nc2c1	> 100 µM	> 100 µM	> 100 µM	> 100 µM		> 100 µM		> 100 µM	> 100 µM	> 100 µM	> 100 µM	> 100 µM							
COC(=O)[C@@H]1CCCN1CCN1CCC[C@H]1C(=O)OC	> 100 µM		> 100 µM	> 100 µM		> 100 µM	> 100 µM	> 100 µM	> 100 µM	> 100 µM	> 100 µM	> 100 µM							
Cc1ccc2nc(Cl)c(/C=N/N3C(=O)/C(=C/c4ccccc4S)N=C3c3ccccc3)cc2c1	> 100 µM	> 100 µM	> 100 µM	> 100 µM	> 100 µM	79.4 µM	31.8 µM	40.5 µM	> 100 µM	> 100 µM		> 100 µM							
CCOP(=O)(OCC)c1c(C(=O)OC)cc(=O)[nH]c1-c1ccc(C)cc1	31.5 µM	17 µM	> 51.1 µM	12.3 µM	> 100 µM	27.8 µM	37.4 µM	> 61.1 µM	22.5 µM	34.7 µM	3.03 µM	20.4 µM							
CC(=O)c1ccc2c3c1[C@@H]1O[C@@H]1c1cccc(c1-3)[C@@H]1O[C@H]21	37.4 µM	39.5 µM	13.9 µM	29.7 µM	6.21 µM	22.3 µM	25.7 µM	39.9 µM	27.3 µM	13 µM	13 µM	31.1 µM	2.6 µM						
O=C1c2ccccc2-c2nc(-c3cccc([N+](=O)[O-])c3)nnc21	98.6 µM	61.1 µM	> 100 µM	> 100 µM		73.2 µM	4.05 µM	5.49 µM	> 100 µM		> 100 µM	32 µM							
COc1cc(CNc2ccc(SC)cc2)cc(OC)c1OC	> 100 µM	> 100 µM	51.1 µM and 35.4 µM	> 96.1 µM and 47.6 µM	> 59.7 µM and 45.9 µM	> 47 µM and 37.9 µM	80 µM	7.15 µM	> 100 µM	99.4 µM and > 76.9 µM	29.3 µM and 11 µM	> 80.7 µM and 51.1 µM		15.2 µM and 6.16 µM	5.28 µM	1.67 µM and 0.638 µM	3.35 µM and 1.05 µM	23.7 µM and 5.71 µM	10.7 µM and 4.64 µM
O=C(Cc1ccccc1)NN1C(=O)/C(=C\c2cccc(O)c2)SC1=Nc1ccccc1	> 100 µM	> 100 µM	> 100 µM			> 100 µM	> 100 µM	> 100 µM	> 100 µM	> 100 µM		> 100 µM							
CCC(C#N)NC(=O)NC(C#N)CC (stereo not drawn)	> 100 µM	> 100 µM	> 100 µM	> 100 µM	> 100 µM	> 100 µM	> 100 µM	> 100 µM	> 100 µM		> 100 µM	> 100 µM							
O=c1c2c([N+](=O)[O-])cccc2nc2[nH]c3ccccc3n12	> 75 µM	> 75 µM	> 75 µM	69 µM	> 75 µM	> 75 µM	> 75 µM	> 75 µM	23.9 µM	> 75 µM		> 75 µM							
CCC1(C)N=C(c2cnccn2)NN1c1ccc(Cl)cc1 (stereo not drawn)	> 100 µM	> 100 µM	> 100 µM	> 100 µM	> 100 µM	> 100 µM	> 100 µM	> 100 µM	> 100 µM	> 100 µM	> 100 µM	> 100 µM							
CC1=NN2C(=N)/C(=C/c3ccco3)C(=O)N=C2S1	> 100 µM	> 100 µM	> 100 µM	> 100 µM	> 100 µM	> 100 µM	> 100 µM	> 100 µM	> 100 µM	> 100 µM	> 100 µM	> 100 µM							
c1cc2nnnn2nc1N1CCCC1	> 100 µM		> 100 µM	> 100 µM	> 100 µM	> 100 µM	> 100 µM	> 100 µM	> 100 µM	> 100 µM		> 100 µM							
O=c1[nH]nc(Cc2ccc([N+](=O)[O-])cc2)n1CCO	> 100 µM	> 100 µM	> 100 µM	> 100 µM	> 100 µM	> 100 µM	> 100 µM	> 100 µM	> 100 µM	> 100 µM	> 100 µM	> 100 µM							
N#Cc1c(-c2ccccc2)nc(-c2ccccc2)sc1=S	> 100 µM	> 100 µM	> 100 µM	> 100 µM	> 100 µM	> 100 µM	> 100 µM	> 100 µM	> 100 µM	> 100 µM		> 100 µM							
O=C(OCC1OC2OC(c3ccccc3)(n3ccc4c([N+](=O)[O-])ccnc43)OC2C1OC(=O)c1ccccc1)c1ccccc1 (stereo not drawn)	> 100 µM	> 100 µM	> 100 µM	> 100 µM	> 100 µM	> 100 µM	> 100 µM	> 100 µM	> 100 µM	> 100 µM		> 100 µM							
N#Cc1nc(-c2cccs2)oc1N	> 100 µM	> 100 µM	> 100 µM	> 100 µM	> 100 µM	> 100 µM	> 100 µM	> 100 µM	> 100 µM	> 100 µM	92 µM	> 100 µM							
O=c1nc2c(c(-c3ccccc3Cl)[nH]1)COC/C2=C\c1ccccc1Cl		97.4 µM	> 100 µM	> 100 µM	> 100 µM	> 100 µM	> 100 µM	> 100 µM	> 100 µM	> 100 µM		> 100 µM							
CC1CCOc2ccc(cc2)C=Nc2ccc(cc2)CCc2ccc(cc2)N=Cc2ccc(cc2)OCC1 (stereo not drawn)	> 100 µM	> 100 µM	> 100 µM	> 100 µM	> 100 µM	> 100 µM	> 100 µM	> 100 µM	> 100 µM	> 100 µM	> 100 µM	> 100 µM							

SMILES	TGI [1]	TGI [2]	TGI [3]	TGI [4]	TGI [5]	TGI [6]	TGI [7]	TGI [8]	TGI [9]	TGI [10]	TGI [11]	TGI [12]	GI50 [5]	GI50 [4]	GI50 [6]	GI50 [7]	GI50 [8]	GI50 [10]	GI50 [12]
CN(C)c1ccc(C2SCC(=O)N2NS(=O)(=O)c2cccc(C(=O)O)c2)cc1 (stereo not drawn)	> 100 µM	> 100 µM	> 100 µM	> 100 µM	> 100 µM	> 100 µM	> 100 µM	> 100 µM		> 100 µM	> 100 µM	> 100 µM							
CCOC(=O)/C=C(\C(=O)OCC)n1cc(C)c(=O)n(Cc2cnnn2CCCCOC(C)=O)c1=O	60.7 µM	25.2 µM	22.7 µM	4.83 µM	18.9 µM	86.2 µM	26.1 µM	55.8 µM	58 µM	25.1 µM	3.33 µM	31.7 µM							
O=C1NC(N/N=C/C(O)C(O)C(O)CO)=N/C1=C\c1ccco1 (stereo not drawn)	> 100 µM	> 100 µM	> 100 µM	> 100 µM	> 100 µM	> 100 µM	> 100 µM	> 100 µM	> 100 µM	> 100 µM	> 100 µM	> 100 µM							
Cc1cn(C(Cc2ccccc2)OCCO)c(=O)[nH]c1=O (stereo not drawn)	> 100 µM	> 100 µM	> 100 µM	> 100 µM	> 100 µM	> 100 µM	> 100 µM	> 100 µM	> 100 µM	> 100 µM		> 100 µM							
Cc1cn(C2CC(n3cc(Cn4cc(Br)c(=O)[nH]c4=O)nn3)C(CO)O2)c(=O)[nH]c1=O (stereo not drawn)	> 100 µM	> 100 µM	> 100 µM	> 100 µM	> 100 µM	> 100 µM	> 100 µM	> 100 µM	> 100 µM	> 100 µM		> 100 µM							
CC1(CF)SCc2nc3ccccc3n21 (stereo not drawn)	> 100 µM	> 100 µM	> 100 µM	> 100 µM	> 100 µM	> 100 µM	> 100 µM	> 100 µM		> 100 µM	> 100 µM	> 100 µM							
Nc1cccc(Nc2nc3ccccc3nc2NS(=O)(=O)c2ccccc2)c1	> 100 µM	> 100 µM	32.9 µM	78 µM	47.3 µM	71.8 µM	62.4 µM	> 100 µM	46.5 µM	49.3 µM		46.1 µM							
CNC(=O)Oc1ccc(-c2cn3cc(OC(=O)NC)ccc3n2)cc1	> 100 µM	> 100 µM	> 100 µM	> 100 µM	> 100 µM	> 100 µM	> 100 µM	> 100 µM	> 100 µM	> 100 µM		> 100 µM							
C/C=C/C(O)P1(=O)N(Cc2ccccc2)[C@@H]2CCCC[C@H]2N1Cc1ccccc1 (stereo partly drawn)	> 25 µM	> 25 µM	> 25 µM		> 25 µM	> 25 µM	> 25 µM	> 25 µM	> 25 µM	> 25 µM	> 25 µM	> 25 µM							
CCN1C(=O)C(=C/C=C/c2ccc([N+](=O)[O-])cc2)C(=O)N(CC)C1=S	> 100 µM	62.7 µM	31.9 µM	34.2 µM	33.2 µM	> 100 µM	47.7 µM	67 µM	> 100 µM	31.9 µM		34.7 µM							
O=C1CCCCC(=O)OC2(CCCCC2=O)CC1 (stereo not drawn)	> 100 µM		> 100 µM	> 100 µM		> 100 µM	> 100 µM	> 100 µM	> 100 µM	> 100 µM	> 100 µM	> 100 µM							
CC1Cn2c(nc3ccccc32)NC1=O (stereo not drawn)	> 100 µM	> 100 µM	> 100 µM	> 100 µM	> 100 µM	> 100 µM	> 100 µM	> 100 µM	> 100 µM		> 100 µM	> 100 µM							
O=C(O)CC[N+]1=CCC(c2ccccc2)(c2ccccc2)O1	> 100 µM	> 100 µM	> 100 µM	> 100 µM		> 100 µM	> 100 µM	> 100 µM	> 100 µM	> 100 µM	> 100 µM	> 100 µM							
OCC1OC(n2cnc3c(Cl)nc(Nc4ccccc4)nc32)CC1O (stereo not drawn)	36.4 µM	8.15 µM	> 100 µM	6.87 µM	36.5 µM	> 100 µM	> 100 µM	> 100 µM	> 100 µM		10.6 µM	> 100 µM							
CN(C)Cc1cc(C(=O)/C=C/c2ccccc2Cl)cc(CN(C)C)c1O	38.7 µM	30.6 µM	19.8 µM	39.6 µM	13.5 µM	23.3 µM	26.3 µM	34.1 µM		27.9 µM	18 µM								
Cc1ccc(-c2cc(N)n(-c3nc4c(c(=O)n(C)c(=O)n4C)n3C)n2)cc1	> 100 µM	> 100 µM	> 100 µM	> 100 µM		> 100 µM	> 100 µM	> 100 µM	> 100 µM	> 100 µM	> 100 µM	> 100 µM							
NC(=O)NNC(=O)c1nc[nH]c1[N+](=O)[O-]	> 100 µM	> 100 µM	> 100 µM		> 100 µM	> 100 µM	> 100 µM	> 100 µM	> 100 µM	> 100 µM	> 100 µM	> 100 µM							
COC(=O)C1=C2SCc3cccc(c3)CSC3=C(C(=O)OC)SC(=C(S2)S1)S3	> 100 µM		> 100 µM			> 100 µM	> 100 µM	> 100 µM	> 100 µM	> 100 µM		> 100 µM							
O=C(O)c1ccc(S(=O)(=O)c2ccccc2[N+](=O)[O-])cc1	> 10 µM	> 10 µM	> 10 µM		> 10 µM	> 10 µM	> 10 µM	> 10 µM	> 10 µM	> 10 µM	> 10 µM	> 10 µM							
CC(=O)N1N=C(c2ccc3ccccc3c2O)CC1C(=O)c1ccco1 (stereo not drawn)	> 100 µM		> 100 µM	> 100 µM		57.7 µM	> 100 µM	> 100 µM	> 100 µM	> 100 µM	76.6 µM	62.6 µM							
